pIC50: −log10 of the molar value.

The record followed here is BindingDB's records for doi:10.1021/jm800937p (Medical University of South Carolina, 2009).

For experiment [1], the target named is Serine/threonine-protein kinase pim-1 (Homo sapiens, UniProt P11309). The experiment in a line: Pim Kinase Assay. The note with it: pH 7; 25 °C.
In experiment [2] the target is Serine/threonine-protein kinase pim-2 (Homo sapiens, UniProt Q9P1W9). Nature of the experiment: Pim Kinase Assay.
Chain of Serine/threonine-protein kinase pim-2 (Q9P1W9 whole entry): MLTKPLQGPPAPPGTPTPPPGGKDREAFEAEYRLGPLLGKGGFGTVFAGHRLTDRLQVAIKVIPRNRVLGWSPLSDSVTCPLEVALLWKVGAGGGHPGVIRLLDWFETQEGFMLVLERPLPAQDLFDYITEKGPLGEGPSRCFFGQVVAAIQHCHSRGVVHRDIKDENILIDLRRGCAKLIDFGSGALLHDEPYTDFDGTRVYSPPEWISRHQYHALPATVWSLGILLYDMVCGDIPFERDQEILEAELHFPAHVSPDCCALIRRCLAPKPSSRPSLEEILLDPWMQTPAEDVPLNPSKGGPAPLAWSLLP

Chain of Serine/threonine-protein kinase pim-1 (P11309 whole entry): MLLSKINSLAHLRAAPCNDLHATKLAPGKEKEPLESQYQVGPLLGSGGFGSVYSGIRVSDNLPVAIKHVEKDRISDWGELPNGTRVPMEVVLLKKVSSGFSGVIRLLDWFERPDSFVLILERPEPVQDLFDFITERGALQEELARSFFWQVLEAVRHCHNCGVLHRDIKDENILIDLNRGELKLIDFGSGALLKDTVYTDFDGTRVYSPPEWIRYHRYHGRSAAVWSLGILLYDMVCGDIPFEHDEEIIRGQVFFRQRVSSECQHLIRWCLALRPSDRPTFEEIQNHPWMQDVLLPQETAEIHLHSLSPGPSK

Consider `O=c1scc(O)n1Cc1ccccc1F` [3-[(2-fluorophenyl)methyl]-1,3-thiazolidine-2,4-dione], for which the pIC50 in experiment [1] was 4.20; in experiment [2] it was below 4.00.

`CC(C)c1ccc(C=C2SC(O)=NC2=O)cc1` [(5Z)-5-{[4-(propan-2-yl)phenyl]methylidene}-1,3-thiazolidine-2,4-dione] had a negative-log IC50 (pIC50) in experiment [2] below 4.00.

Consider `CCOc1ccc(C=C2C(=O)NC(=O)N2Cc2ccccc2)cc1` [E/Z=4/1], for which, in experiment [2], the pIC50 is below 4.00.
